Test results reported in EP3390415B1, “(R)- AND (S)-1-(3-(3-N,N-DIMETHYLAMINOCARBONYL)PHENOXYL-4-NITROPHENYL)-1-ETHYL-N,N'-BIS (ETHYLENE)PHOSPHORAMIDATE, COMPOSITIONS AND METHODS FOR THEIR USE AND PREPARATION” (OBI PHARMA, INC., priority 2015, dated 2017).

Key:
[1] = system: A375 melanoma human tumor xenograft; test: In vivo human tumor xenograft model, antitumor activity; set-up: species or system nude mice; settings: 2.5mpk,qdx5x2,ip
Source text: Specific pathogen-free homozygous female nude mice (nu/nu, Charles River Laboratories) were used. Mice were given food and water ad libitum and housed in microisolator cages. Four to six week old animals were identified by microchips (Locus Technology, Manchester, MD, USA) at the time of the experiments. All animal studies were approved by the Institutional Animal Care and Use Committee at Threshold Pharmaceuticals, Inc.
All cell lines were from the American Type Culture Collection (ATCC, Rockville, MD, USA).
Cells were mixed with Matrigel (30% in H460) and 0.2 ml per mouse were subcutaneously implanted to the flank area of the animals. When tumor size reached 100-150 mm^3, mice were randomized into experimental or vehicle groups with 10 mice/group and treatment was started (Day 1). The tested compounds were formulated in 5% DMSO in D5W. All compounds were given by IP, QDx5/wk (5 days on, 2 days off) as one cycle, for a total of 2 cycles. Tumor growth and body weight were measured twice a week. Tumor volume was calculated as (length x width^2)/2. Drug efficacy was assessed as Tumor Growth Inhibition (TGI) and Tumor Growth Delay (TGD). TGI was defined as (1-ΔT/ΔC) x 100, where ΔT/ΔC presented the ratio of the change in mean (or median, if variation within the group was relatively large) tumor volume of the treated group and of the control group. TGD was calculated as the extra days for the treated tumor to reach 500mm^3 as compared to the control group. Animals were culled when individual tumor size reached over 2000mm^3 or mean tumor volume exceeded 1000mm^3 in the group. Data are expressed as the mean ± SEM. One-way analysis of variance with Dunnett post comparison test (GraphPad Prism 4) or two-tailed student's t-test were used for analysis. A P level < 0.05 was considered statistically significant.
This study employed an A375 melanoma human tumor xenograft model and the compounds provided herein were compared to thiotepa and the approved anti melanoma drug, Abraxane. […] Mpk refers to mg/kg.

[2] = system: HepG2-GFP human hepatocellular carcinoma; test: Orthotopic mouse model of human liver cancer, tumor burden; type: in vivo, athymic nude mice; settings: 30mg/kg, Qdx35, Gavages
Protocol: Female athymic nude mice (6 weeks of age) were used in this study. The animals were purchased from Beijing HFK Bioscience, Co., Ltd and maintained in a High Efficiency Particulate Air Filter (HEPA) filtered environment with cages, food, and bedding sterilized by irradiation or autoclaving. A total of 32 nude mice were used for the study. HepG2-GFP human hepatocellular carcinoma cells (AntiCancer, Inc., San Diego, CA) were incubated with RPMI-1640 (Gibco-BRL, Life Technologies, Inc.), which contained 10% FBS. Cells were grown in a CO2 Water Jacketed Incubator (Forma Scientific) maintaining 37°C and a 5% CO2/95% air atmosphere. Cell viability was determined by trypan blue exclusion analysis. Five female athymic nude mice were injected subcutaneously with a single dose of 5 x 10^6 HepG2-GFP cells. Tumors were harvested when their size reached 1cm^3 and the tumor tissues were then cut into small fragments of 1mm^3. Forty female nude mice were implanted orthotopically with a single piece of tumor fragment, which was derived from a subcutaneous tumor model of HepG2-GFP human hepatocellular carcinoma. The tumor tissue was orthotopically implanted in the right lobe of the liver in each mouse by SOI (Surgical Orthotopic Implantation). Briefly, an upper abdominal incision of 1cm was made under anesthesia. Right lobe of the liver was exposed and a part of the liver surface was injured mechanically by scissors. Then a piece of tumor fragment was fixed within the liver tissue, the liver was returned to the peritoneal cavity and the abdominal wall finally closed. Mice were kept in laminar-flow cabinets under specific pathogen-free-conditions.
Treatment was started three days after tumor implantation when the implanted tumors reached an average size of around 1 mm^2. The 32 tumor-bearing mice were randomly divided into four experimental groups of 8 mice each. Each cage was clearly marked for its group with four mice per cage. […] Table. Groups and treatment protocol
During the period of the study, all of the experimental mice were checked daily for mortality or signs of morbidity. […] The body weights of the mice were measured twice weekly during the study period. Images of tumor growth and progression were acquired twice a week during the period of the study with the FluorVivo imaging system, Model 300/Mag (INDEC, CA, USA). […] Livers were exposed for imaging, after which the tumors were removed and weighted with an electronic balance (Sartorius BS 124 S, Germany). Tumor tissues were kept in formalin for further analysis. Comparisons of body weights and tumor burdens in different groups were analyzed using the Student's t-test with an α = 0.05 (two-sided). After intravenously injection of the test agents, the mice had no lying, no autonomous activity reduction. The experimental animals were generally in good condition. Table. Comparison of mean mice body weight at the end of the study
The progressions of orthotopic HepG2-GFP hepatocellular carcinoma in different groups were monitored by real time imaging. Images were acquired twice a week. Typical tumor images at the end of the study in each group and tumor growth curves derived from the signals of tumor fluorescence, which were analyzed using the Power Station software (INDEC Biosystems, CA, USA), are shown in figure 6 and figure 7, respectively Table. Average tumor size in each group (mm2)

[3] = Body weight and toxicity in the orthotopic liver cancer mouse model; type: in vivo, athymic nude mice; settings: mouse, in vivo

SMILES	Days to 500 mm^3 [1] [days]	Days to 1000 mm^3 [1] [days]	TGD500, Days (vs. vehicle) [1] [days]	TGD1000, Days (vs. vehicle) [1] [days]	TGI [1] [%]	Tumor weight (g) (mean ± sd) [2]	Tumor area (mm^2) (mean ± sd) ([2]; fluorescence imaging)	tumor inhibition rate IR(%) ([2]; from final average tumor weights)	toxicity to the experimental mice [3]
S=P(N1CC1)(N1CC1)N1CC1 [Thio-TEPA, thiotepa]	18	27	3	2	16.6				
CNC(=O)c1cc(Oc2ccc(NC(=O)Nc3ccc(Cl)c(C(F)(F)F)c3)cc2)ccn1 [Sorafenib, reference compound]						0.0637 ± 0.0389	8.2 ± 5.3	58.7	a certain degree of toxicity
